Experimental data as given in patent publication US5179093A, “Quinoline-diones” (Schering Corporation, priority 1991, dated 1993).
Values after ≈ are worked out from the molar mass of the structure shown.

How the values were obtained:
[1] = Compound toxicity assay: inhibition of HeLa cell translation (^3 H-LEU assay); format: cell-based; conditions: human; HeLa cells, overnight (24 hours) treatment, tritiated leucine incorporation; read-out: CYTOTOXICITY ^3 H--LEU ASSAY IC50
Experimental: HeLa cells were treated with inhibitory compound for 24 hours, after which levels of translational activity were assayed.
For assay of translational activity, HeLa cultures were grown to 80% confluency in 96 well microtiter plates, treated with appropriate concentrations of compound in 2% EMEM during an overnight incubation at 37° C., then rinsed with HBSS and overlaid with […] of 2% EMEM containing 8 uCi of tritiated leucine (^3 H-LEU, 141 Ci/mMol, Amersham Corp., Arlington Heights Ill.). After 1 hr incubation at 36.5° C., the cells were rinsed twice with phosphate buffered saline (PBS) and lysed in 400 ul/well of 1×PBS, 0.5% sodium dodecyl sulphate (SDS). After a 10 minute incubation at 36.5° C., the contents of the well were transferred to a well in a Millititer HA microfiltration plate (Millipore Corp., Bedford, MA). The TCA insoluble proteins were precipitated onto the filter disc by a 10 minute fixation with 5% TCA, followed by filtration under vacuum and three 10 minute rinses with 95% ethanol. The filters were dried at room temperature, cut from the milltitier plate and transferred to scintillation vials. TCA precipitable counts were assayed in 5 ml of Scintisol (Isolab, Akron, Ohio). The inhibitory activity of a compound was plotted versus the concentration and an IC50 value (that concentration of the compound required to decrease cellular translational activity by 50%) was derived for each compound.

HSV-2 (strain MS) = assay: Transient expression of beta galactosidase in transfected HeLa cells superinfected with HSV-2 (HSV-β-GAL assay); format: cell-based; conditions: Human alphaherpesvirus 2, plasmid pON 245^ori-, moi=5 pfu/cell, 24 hours, read-out: ANTI-HSV ACTIVITY HSV-β-GAL ASSAY IC50
Experimental: HeLa and Vero cell cultures were maintained in Eagles Minimal Essential Medium (EMEM) which was supplemented with glutamine, penicillin, streptomycin and 10% fetal calf serum (10% EMEM). Stock cultures of HSV-2 (strain MS available from ATCC VR-540) were grown in and harvested from Vero cells. Viral stocks were titered in Vero cells according to established procedures.
Plasmid pON 245^ori- contains the promoter of the HSV-1 thymidine kinase (tk) gene located immediately 5' of the E. coli lac Z gene. In this arrangement, the tk promoter controls transcription from the bacterial gene in transient expression assays. Additionally, an SV40 polyadenylation signal is present at the 3' end of the lac Z gene to allow for the efficient translation of the mRNA in eucaryotic cells. The expression of beta galactosidase in a transient assay using pON 245^ori- is dependent upon superinfection of the transfected cells with HSV. […] For example see U.S. application Ser. No. 07/435,491 filed Sep. 5, 1989, the disclosure of which is incorporated herein by reference thereto.
HeLa cells were seeded into 96 well microtiter plates and allowed to grow to 80% confluency (approximately 35,000 cells/well). One half microgram of plasmid pON 245^ori- DNA was introduced into the cells of each well by the […] precipitation technique (Grahman and Van der Eb, 1973). Four to six hours later, the cells were rinsed with hank's Balanced Salt Solution (HBSS), overlaid with 10% EMEM and incubated at 37° C. At 24 hrs post-transfection, cells were rinsed, overlaid with 10% EMEM again and re-incubated at 37° C. At 48 hrs post-transfection, cells were rinsed and overlaid with either EMEM containing 2% fetal calf serum (2% EMEM), 2% EMEM containing HSV-2 (strain MS, Multiplicity of Infection [moi]=5 pfu/cell) or 2% EMEM containing HSV-2 and the appropriate concentration of Schering compound to be tested. Twenty-four hours later, the cells were harvested and assayed for beta galactosidase activity as described below.
All determinations of beta galactosidase activity were performed in 96 well microtiter plates. The intracellular level of beta galactosidase activity in each well was determined from cell lysates of the monolayer cultures. Aliquots were assayed by incubation in the presence of beta galactosidase substrate, 4-methylumbelliferyl-β-D-galactoside (MUG, 125 ug/ml, Sigma), for 2 hours. The generation of fluorescent product was quantified on a Microfluor microfluorimeter (Dynatech) after addition of 0.1M glycine, pH 10.3 (Spaete and Mocarski, 1985). The inhibitory activity of a compound was plotted versus the concentration and an IC50 value (the concentration of compound required to reduce beta glactosidase expression by 50%) was obtained for each compound tested.

Row | SMILES | IC50 (HSV-2 (strain MS)) | CC50 at 24 h [1]
1 | CN1C(=O)C(=CNCc2ccccc2)C(=O)c2ccccc21 [EX. 14, (E,Z) 1-Methyl-3-Benzylaminomethylene-Quinolin-2,4(1H)-Dione] | 9 µg/mL (≈ 30.8 µM) | 27 µg/mL (≈ 92.4 µM)
2 | CN1C(=O)C(=CNCc2ccncc2)C(=O)c2ccccc21 [EX. 22, (E,Z)1-Methyl-3-[(4-Pyridylmethylamino)methylene]Quinolin-2,4(1H)-Dione] | < 3 µg/mL | 100 µg/mL (≈ 341 µM)
3 | CCCCCCN1C(=O)C(=CNCc2ccccc2)C(=O)c2ccccc21 [EX. 25, (E,Z)1-hexyl-3-benzyleminomethylene-quinolin-2,4(1H)-Dione] | < 3 µg/mL | 37 µg/mL (≈ 102 µM)
4 | CCCCCCN1C(=O)C(=CNCc2ccncc2)C(=O)c2ccccc21 [EX. 26, (E,Z)1Hexyl-3-[(4-Pyrigylmethylamino)methylene-Quinolin-2,4(1H)-Dione] | 4 µg/mL (≈ 11 µM) | 43 µg/mL (≈ 118 µM)
5 | O=C1C(=CNCc2ccccc2)C(=O)N(c2ccccc2)c2ccccc21 [EX. 27, (E,Z)1-Phenyl-3-Benzylaminomethylene-Quinolin-2,4(1H)-Dione] | 4 µg/mL (≈ 11.3 µM) | 10 µg/mL (≈ 28.2 µM)
6 | O=C1C(=CNCc2ccncc2)C(=O)N(c2ccccc2)c2ccccc21 [EX. 28, (E,Z)1-Phenyl-3-[(-Pyridylmethylamino)methylene]Quinolin-2,4(1H)-Dione] | 7 µg/mL (≈ 19.7 µM) | 25 µg/mL (≈ 70.3 µM)
7 | CCCCCCCN1C(=O)C(=CNCc2ccccc2)C(=O)c2ccccc21 [EX. 29, (E,Z)1-Heptyl-3-Benzylaminomethylene-Quinolin-2,4(1H)-Dione] | 5 µg/mL (≈ 13.3 µM) | 16 µg/mL (≈ 42.5 µM)
8 | CCCCCCCN1C(=O)C(=CNCc2ccncc2)C(=O)c2ccccc21 [EX. 30, (E,Z)1-Heptyl-3-[(4-Pyridylmethylamino)methylene]-Quinolin-2,4(1H)-Dione] | 3 µg/mL (≈ 7.95 µM) | 20 µg/mL (≈ 53 µM)
9 | CCNC=C1C(=O)Oc2ncccc2C1=O [EX. 38, 3-(ethylaminomethylene)-2,4-dioxo 3,4-dihydro-2H-pyrido-[2,3-b]-pyran] | > 25 µg/mL | 

Continued, in another order:

Row | IC50 (HSV-2 (strain MS)) | SMILES | CC50 at 24 h [1]
10 | 6 µg/mL (≈ 15.6 µM) | Cc1ccc2c(c1)C(=O)C(=CNCc1ccncc1)C(=O)N2Cc1ccccc1 [EX. 15, (E,Z)1-Benzyl-3-[4-Pyridylmethylamino)methylene]-6-Methyl-Quinolin-2,4(1H)-Dione] | 37 µg/mL (≈ 96.5 µM)
11 | < 3 µg/mL | O=C1C(=CNCc2ccccc2)C(=O)N(Cc2ccccc2)c2ccc(Cl)cc21 [EX. 16, (E,Z 1-Benzyl-3-Benzylaminomethylene-6-Chloro-Quinolin-2,4(1H)-Dione] | 7 µg/mL (≈ 17.4 µM)
12 | 4 µg/mL (≈ 9.9 µM) | O=C1C(=CNCc2ccncc2)C(=O)N(Cc2ccccc2)c2ccc(Cl)cc21 [EX. 17, (E,Z1-Benzyl-3-[(4-Pyridylmethylamino)methylene-6-Chloro-Quinolin-2,4(1H)-Dione] | 17 µg/mL (≈ 42.1 µM)
13 | 6 µg/mL (≈ 14.9 µM) | O=C1C(=CNCc2ccccc2)C(=O)N(Cc2ccccc2)c2cc(Cl)ccc21 [EX. 18, (E,Z)1-Benzyl-3-Benzylaminomethylene-7-Chloro-Quinolin-2,4(1H)-Dione] | 10 µg/mL (≈ 24.8 µM)
14 | 13 µg/mL (≈ 32.2 µM) | O=C1C(=CNCc2ccncc2)C(=O)N(Cc2ccccc2)c2cc(Cl)ccc21 [EX. 19, (E,Z)1-Benzyl-3-[(4-Pyridylmethylamino)methylene]7-Chloro-Quinolin-2,4(1H)-Dione] | 40 µg/mL (≈ 99 µM)
15 | 3 µg/mL (≈ 7.84 µM) | Cc1cccc2c1N(Cc1ccccc1)C(=O)C(=CNCc1ccccc1)C2=O [EX. 20, (E,Z) 1-Benzyl-3-Benzylaminomethylene-8-Methyl-Quinolin-2,4(1H)-Dione] | 10 µg/mL (≈ 26.1 µM)
16 | < 3 µg/mL | Cc1cccc2c1N(Cc1ccccc1)C(=O)C(=CNCc1ccncc1)C2=O [EX. 21, (E,Z)1-Benzyl-3-[(4-Pyridylmethylamino)methylene]-8-Methyl-Quinolin-2,4(1H)-Dione] | 29 µg/mL (≈ 75.6 µM)
17 | 10 µg/mL (≈ 27.1 µM) | O=C1C(=CNCc2ccncc2)C(=O)N(Cc2ccccc2)c2ccccc21 [EX. 24, (E,Z)1-Benzyl-3-[(4-Pyridylmethylamino)methylene]-Quinolin-2,4(1H)-Dione] | > 100 µg/mL
